{"source": "patent US8501166B2", "about": "“Pyrimidinyl indole compounds” (Hutchison Medipharma Limited, priority 2010, dated 2013)", "key": {"[1]": {"tested_on": "LPS-induced joint TNFα production", "assay": "LPS-induced acute joint inflammation in rat", "assay_type": "in vivo, Wistar rats", "conditions": "oral 1 h before intra-articular LPS 10 μg", "experimental": "To further investigate the effects of IKKβ inhibitor on mechanism-relevant joint inflammation, the compound is screened for its ability to inhibit the LPS-induced joint acute inflammation in rat essentially as describe by a method reported in the literature (Matsukawa A, Yoshimura T, Miyamoto K, Ohkawara S, Yoshinaga M. Lab Invest. 1997, 76(5):629-38). Briefly, Wistar rats (female, body weight 150 g-170 g) are used in the experiments Animals (8/group) are given 1 to 100 mg/kg of the test compound [suspension in 35% Solutol (Macrogol 15 Hydroxystearate) & 60% PEG400 & 5% PG (propylene glycol)] or vehicle by oral gavage at 1 h prior to intra-articular (i.a.) administration of 10 μg of LPS in 10 μL of saline on left hind knee of each rat, using a 26-gauge needle. The right hind knee of each rat is injected with 10 μL of saline as a control. Two hour after LPS injection, each […] of the rats is lavaged with 100 μL of saline. The synovial fluids are collected and stored at -80° C. The […] is diluted 2 fold with the dilution buffer and 50 μL of the diluted sample is used for the measurement of TNFα levels using R&D System ELISA Kit based on the general Kit protocol. The plate is read on a SPECTRAMAX® M2e Plus Plate Reader and TNFα levels are analyzed using a standard curve. The drug levels are also measured by liquid chromatography-tandem mass spectrometry (LC-MS-MS)."}, "[2]": {"tested_on": "OVA-induced airway inflammation", "assay": "OVA-induced pulmonary inflammation in Brown-Norway rats", "assay_type": "in vivo", "conditions": "Rattus norvegicus, 480 h; BN rats, 0.3 to 30 mg/kg oral bid, day 20 and 21; read-out: ED50, increase of total cells and eosinophiles in BAL fluids", "experimental": "To evaluate the effects of IKKβ inhibitors on antigen-driven airway inflammation in vivo, the compound is also tested in OVA-induced pulmonary inflammation model in rats essentially as described in a method reported in the literature (Yamamoto N, Takeshita K, Shichijo M, Kokubo T, Sato M, Nakashima K, Ishimori M, Nagai H, Li Y F, Yura T, Bacon K B. J Pharm. Exp Ther. 2003; 306(3):1174-81). Briefly, male BN rats weighing from 240 to 260 g are sensitized by intraperitoneal injection of 1 mL of saline containing 1 mg of OVA and 13 mg of aluminum hydroxide on days 1, 2 and 3. Rats serving as normal control received 1 mL of saline instead of OVA. The test compound at doses of 0.3, 1, 3 and 30 mg/kg (bid) is orally administered to rats on day 20 and 21. On day 21 rats are challenged with 1% OVA for 15 minutes with Buxco Mass Dosing System. On day 22, rats are anesthetized with 1% Pentobarbital Sodium. The thoracic and abdominal cavities are opened. Plasma is collected from centrifuged specimens. The trachea is dissected and transected. Through the insertion of an 18-gauge catheter into the trachea, the lungs are lavaged with a total of 15 mL of sterile PBS, and then placed into a specimen container. Cell-free BAL supernatants are obtained by centrifugation of BAL fluids. All serum and BAL supernatants are stored at −80° C. until use. […]"}, "[3]": {"tested_on": "SKOV-3x-FF-luci human ovarian cancer xenograft", "assay": "Anti-tumor effects in SKOV-3x-FF-luci xenograft (alternate protocol, 23 days)", "assay_type": "in vivo, Balb/c nu/nu mice", "experimental": "Alternately, the test compound is evaluated for its anti-tumor effects on tumor growth of human ovarian cancer SKOV-3x-FF-luci in nude mice. SKOV-3x-FF-luci cell line (ATCC) is cultured in McCoy's 5a medium containing 10% fetal calf serum. Female Balb/c nu/nu mice (6-7 weeks old) are injected peritoneally with 0.2 mL of cell suspension containing 2×10^6 cells. Mice are randomized and divided into four groups six days after cell implantation. The test compound at doses of 30 and 100 mg/kg is orally administered to animals twice a day for 23 consecutive days. Mice in the control group are administered the vehicle (10% Acacia), twice a day. Mice in the positive control group are injected with Cisplatin (4 mg/kg) via the tail vein once a week. At the end of the treatment, all mice are euthanized with CO2 and tumor nodules in the peritoneal cavity, diaphragmatic muscle, mesenterium, liver, spleen, and ovaries are dissected, harvested, and combined for the measurement of weight. Inhibition rate: IR %=(tumor weight in control−tumor weight in drug treated)/tumor weight in control×100%)."}}, "data": [{"smiles": "Cl.O=C(NC1CC1)c1cccc2[nH]c(-c3nc(N[C@@H]4CCC[C@H]4O)ncc3Cl)cc12", "note": "[Example 2, 2-{5-Chloro-2-[(1R,2R)-2-hydroxycyclopentylamino]pyrimidin-4-yl}-N-cyclopropyl-1H-indole-4-carboxamide hydrochloride]", "values": [{"measurement": "ED50", "setting": "[1]", "result": 23.4, "unit": "mg/kg"}, {"measurement": "ED50", "setting": "[2]", "result": 0.49, "unit": "mg/kg"}, {"measurement": "tumor inhibition rate (IR)", "setting": "[3]; 30 mg/kg oral twice a day", "result": 59.3, "unit": "%"}, {"measurement": "tumor inhibition rate (IR)", "setting": "[3]; 100 mg/kg oral twice a day", "result": 93.9, "unit": "%"}]}]}
